# Literature values as cited in US20250283018A1, “TOILET RIM BLOCKS WITH SCENT CHANGE” (SYMRISE AG, priority 2021, published 2025).
# Like-named read-outs stand apart in the source and are kept apart here.
# Key:
# [1] = not given; remark: listed apart in the source
# [2] = Table 3, components of POWER PLATIN
Compound,"Bp. [° C.] (Table 2, components of PEACH)","Bp. [° C.] (Table 1, components of MARINA)",Bp. [° C.] [2],Bp. [° C.] (list of selected fragrances),also measured
CO[C@]1(C)CC[C@@]23C[C@@H]1C(C)(C)[C@@H]2CC[C@H]3C [CEDRAMBER],,270 °C,270 °C,,
CC1CC(C)(c2ccccc2)OC(C)O1 (centres unmarked),,,,279.2 °C,logP ([1]; list of selected fragrances): 2.79
CCCCCCCCC=O [ALDEHYD C 9],,191 °C,,,"logP ([1]; Table 1, components of MARINA): 3.27"
C=C(C)C1CC=C(C)C(OC(C)=O)C1 (centres unmarked) [ACETIC ACID CARVYL ESTER],,,,92 °C,logP ([1]; list of selected fragrances): 4.26
CCCCC(=CCC#N)CC,,,,230 °C,logP ([1]; list of selected fragrances): 3.98
C/C=C/C(=O)C1C(C)C=CCC1(C)C (centres unmarked) [DELTA DEMASCONE],251 °C,,251 °C,251 °C,"logP ([1]; Table 2, components of PEACH): 4.16; logP [1, 2]: 4.16"
c1ccc(Oc2ccccc2)cc1 [DIPHENYLOXID],,258 °C,258 °C,,"logP ([1]; Table 1, components of MARINA): 4.05; logP [1, 2]: 4.05"
CCC(C)(O)CCCC(C)C (centres unmarked) [TETRAHYDROLINALOOL],,197 °C,197 °C,,
NEROL 900,,,228 °C,,"logP [1, 2]: 3.47"
CCC(CC)COC(=O)CC1C=CCC1 (centres unmarked) [(2-CYCLOPENTEN-1-ACETIC ACID-2-ETHYLBUTYL ESTER],,,,252 °C,
CC(C)=CCCC(C)CC#N (centres unmarked),,235 °C,,,"logP ([1]; Table 1, components of MARINA): 3.55"
3-METHYLBUTYL-CYCLOHEXANOL,,,,245 °C,logP ([1]; list of selected fragrances): 4.49
CC(C)=CCCC(C)CCO (centres unmarked) [CITRONELLOL 950],,,223 °C,,
CCCC1(C)OC2CC34CC(C(C)(C)C3CCC4C)C2(C)O1 (centres unmarked),,,,336 °C,logP ([1]; list of selected fragrances): 5.94
CC(=O)/C=C/C1=C(C)CCCC1(C)C [BETA IONONE],,259 °C,,259 °C,logP ([1]; list of selected fragrances): 3.77
C=CC(C)(O)CCC=C(C)C (centres unmarked) [LINALOOL],,,198 °C,,"logP [1, 2]: 3.38"
CC(=O)OC(C)c1ccccc1 (centres unmarked) [STYROLYLACETAT],214 °C,214 °C,,,
CSC,37 °C,,,,

Compound,"Bp. [° C.] (Table 2, components of PEACH)","Bp. [° C.] (Table 1, components of MARINA)",Bp. [° C.] [2],Bp. [° C.] (list of selected fragrances),also measured
CC1=CC(C)C(C=O)CC1 (centres unmarked) [VERTOCITRAL],,187 °C,,,
"O=C1CCCCCCCCCCCCCCC1 [8-CYCLOHEXADECANONE, 8-cyclohexadecanone]",323 °C,,,323 °C,"logP ([1]; Table 2, components of PEACH): 5.82; logP ([1]; list of selected fragrances): 5.97"
"SPIRO[1,3-DIOXOLANE-2,5′-(4′,4′,8′,8′-TETRAMETHYL-HEXAHYDRO-3′,9′-MENTHANONAPHTHALENE)]",,,,280 °C,logP ([1]; list of selected fragrances): 5.16
CC(C=O)Cc1ccc(C(C)C)cc1 (centres unmarked),,,262 °C,262 °C,"logP [1, 2]: 3.91; logP ([1]; list of selected fragrances): 3.61"
CCCCCCC1OC(=O)CC1C (centres unmarked) [3-METHYL-GAMMA-DECALACTONE],,,,293 °C,
CC(C)=CCCC(C)=CCCc1ccncc1,,307 °C,,,"logP ([1]; Table 1, components of MARINA): 5.95"
CC/C=C(\C)C(O)CCCCC (centres unmarked) [UNDECAVERTOL],,235 °C,,,"logP ([1]; Table 1, components of MARINA): 4.05"
CCOC(=O)CC(O)(CC(=O)OCC)C(=O)OCC,294 °C,,,,
CO[C@]1(C)CC[C@@]23C[C@@H]1C(C)(C)[C@@H]2CC[C@H]3C [CEDROL METHYL ETHER],,,,270 °C,
CCCCCC1CCC(=O)O1 (centres unmarked) [ALDEHYD C18 SOG.],250 °C,,,,
CCCCCCCCCC(C)C=O (centres unmarked) [ALDEHYD C12 MNA],,,171 °C,,"logP [1, 2]: 4.67"
C=CCOC(=O)COCCC(C)C [ALLYLAMYLGLYCOLAT],,,226 °C,,
C=CCOC(=O)CCC1CCCCC1 [ALLYLCYCLOHEXYLPROPIONAT],,,,250 °C,
CCOC(=O)C(C)CC (centres unmarked) [ETHYLMETHYLBUTYRAT-2],135 °C,135 °C,,,
COc1ccc(C=O)cc1 [ANISALDEHYD REIN],,,248 °C,,
C=CCc1ccc(O)c(OC)c1 [EUGENOL],,,253.2 °C,253.2 °C,
CC/C=C\CCO [HEXENOL CIS-3],157 °C,157 °C,,,
CC(=O)OC1CCCCC1C(C)(C)C (centres unmarked) [AGRUMEX LC],227 °C,227 °C,227 °C,,

# Second part, led by results:
"Bp. [° C.] (Table 2, components of PEACH)","Bp. [° C.] (Table 1, components of MARINA)",Bp. [° C.] [2],Bp. [° C.] (list of selected fragrances),Compound,also measured
189 °C,,,,CC/C=C\CCOC(=O)OC [LEAFOVERT ®],
,,,341 °C,O=C1CCCCCCCCCCCCCCO1 [OMEGA PENTADECALACTONE],logP ([1]; list of selected fragrances): 5.35
179 °C,,,,CCCC(=O)OCCC(C)C [ISOAMYLBUTYRAT],"logP ([1]; Table 2, components of PEACH): 3.25"
,,,296 °C,CCCCCC1C(=O)CCC1CC(=O)OC (centres unmarked) [METHYLDIHYDROJASMONATE],
,,,276 °C,CCC(=CCC1CC=C(C)C1(C)C)CO (centres unmarked) [ETHYL TRIMETHYLCYCLOPENTENE BUTENOL],logP ([1]; list of selected fragrances): 4.63
,,249 °C,,CCC(C)=CCCC(C)=CC#N [LEMONILE],"logP [1, 2]: 3.96"
,273 °C,,,CC1CC(C)(c2ccccc2)OC(C)O1 (centres unmarked) [FLOROPAL],"logP ([1]; Table 1, components of MARINA): 3.11"
,,290 °C,,CCc1occc(=O)c1O [ETHYLMALTOL],"logP [1, 2]: 0.3"
266 °C,,,266 °C,C=CCOC(=O)COc1ccccc1 [ALLYLPHENOXYACETAT],
,,,325 °C,O=C(OCc1ccccc1)c1ccccc1O [BENZYLSALICYLAT],logP ([1]; list of selected fragrances): 4.06
272 °C,,,,CC(=O)c1oc2ccccc2c1C [NEROLIONE],
,204 °C,,,MENTHON L/ISOMENTHON D,"logP ([1]; Table 1, components of MARINA): 2.87"
,,197 °C,,CC1=CCC(=C(C)C)CC1 [TERPINOLEN DEXTRO],"logP [1, 2]: 4.88"
143 °C,,,,CC(=O)OCCC(C)C [ISOAMYLACETAT],"logP ([1]; Table 2, components of PEACH): 2.26"
,,251 °C,,C=C1CC/C=C(/C)CC[C@@H]2[C@@H]1CC2(C)C [CARYOPHYLLEN NAT. REKT.],"logP [1, 2]: 6.3"
,224 °C,,,CC(=O)O[C@@H]1C[C@H]2CC[C@]1(C)C2(C)C (racemic) [ISOBORNYLACETAT],"logP ([1]; Table 1, components of MARINA): 3.86"
,283 °C,,,CC1(C)CCC[C@]2(C)[C@H]3CCO[C@]3(C)CC[C@@H]12 [AMBROXIDE],
,211 °C,,,CC1(C)[C@@H]2CC[C@@]1(C)[C@H](O)C2 (racemic) [ISOBORNEOL],
247 °C,,,,CCCCCC1(C)CCC(C)(C)C1=O (centres unmarked) [VELOUTONE],"logP ([1]; Table 2, components of PEACH): 4.34"
306 °C,306 °C,,306 °C,CARYOPHYLLENACETAT,"logP ([1]; Table 1, components of MARINA): 5.75; logP ([1]; Table 2, components of PEACH): 5.75; logP ([1]; list of selected fragrances): 5.52"
254 °C,,254 °C,,c1ccc2[nH]ccc2c1 [INDOL FF],"logP ([1]; Table 2, components of PEACH): 2.05; logP [1, 2]: 2.05"
,,,286 °C,CCCCCCCCCCCCCC=O [TETRADECANAL],logP ([1]; list of selected fragrances): 2.89
231 °C,231 °C,231 °C,,CC(O)COC(C)CO (centres unmarked) [DIPROPYLENGLYCOL],
,176 °C,,,CC12CCC(CC1)C(C)(C)O2 [EUCALYPTOL NAT.],
,327 °C,,327 °C,"CCCCCCOC(=O)c1ccccc1O [HEXYLSALICYLAT, hexyl salicylate]","logP ([1]; Table 1, components of MARINA): 5.06; logP ([1]; list of selected fragrances): 4.98"

"Bp. [° C.] (Table 2, components of PEACH)","Bp. [° C.] (Table 1, components of MARINA)",Bp. [° C.] [2],Bp. [° C.] (list of selected fragrances),Compound,also measured
,283 °C,283 °C,,C[C@@H]1CC[C@H]2C(C)(C)[C@H]3C[C@@]12CC[C@@]3(C)O [CEDROL CRIST. NAT.],
,204 °C,,,CC12CCC(CC1=O)C2(C)C (stereo not drawn) [KAMPFER DL],
,,212 °C,,BORNEOL L/ISOBORNEOL 65/35,
263 °C,,263 °C,,C/C=C/C(=O)C1=C(C)C=CCC1(C)C [DAMASCENON],"logP ([1]; Table 2, components of PEACH): 4.21; logP [1, 2]: 4.21"
,212 °C,212 °C,,CC(C)CCCC(C)CCO (centres unmarked) [TETRAHYDROGERANIOL],"logP ([1]; Table 1, components of MARINA): 3.64; logP [1, 2]: 3.64"
267 °C,,,267 °C,CC(C)=CCCC(C)CCOC(=O)C(C)C (centres unmarked) [CITRONELLYLISOBUTYRAT],"logP ([1]; Table 2, components of PEACH): 5.47; logP ([1]; list of selected fragrances): 5.04"
,,231.5 °C,,CCCCCCCCCC(C)=O [UNDECANON-2],"logP [1, 2]: 3.69"
,289 °C,289 °C,,Cc1ccc2c(c1)OCC(=O)CO2 [CALONE],"logP ([1]; Table 1, components of MARINA): 2.43; logP [1, 2]: 2.43"
234 °C,,,,CCCCC1CCC(=O)O1 (centres unmarked) [OCTALACTON GAMMA],
,242 °C,,,CC1(C)C2CC=C(CCC=O)C1C2 (centres unmarked) [PINOACETALDEHYD],"logP ([1]; Table 1, components of MARINA): 3.76"
,267 °C,267 °C,,CC(C)=CCCC1=CCC(C)(C=O)CC1 (centres unmarked) [PRECYCLEMONE B],"logP ([1]; Table 1, components of MARINA): 5.19; logP [1, 2]: 5.19"
219.16 °C,219.16 °C,,,TERPINEOL REIN,
150 °C,,,,CCCCCC(C)=O [HEPTANON-2],"logP ([1]; Table 2, components of PEACH): 1.73"
296 °C,,296 °C,,CCCCCC1C(=O)CCC1CC(=O)OC (centres unmarked) [HEDION],
,224 °C,,,C=CC(C)(O)CCC=C(C)CC (mixture of isomers) [ETHYLLINALOOL],
,,,255 °C,CC(=O)OC1CC(C)CCC1C(C)C (centres unmarked) [MENTHYL ACETATE],
169 °C,169 °C,,,CCCCCCOC(C)=O [HEXYLACETAT],
,212 °C,,,CC12CCC(C1)C(C)(C)C2O (centres unmarked) [FENCHOL],
274 °C,,,,CCCCCCC1OC(=O)CC1C (centres unmarked) [APRIFLOREN ®],
159 °C,,,,CCC/C=C/CO [HEXENOL TRANS-2],
,,0 °C,,C=CCCC(=O)C(=C)C1CCCCC1 [PHARAONE 10% DPG],
,256 °C,256 °C,256 °C,C=CCOC(=O)COC1CCCCC1 [CYCLOGALBANAT],
,,234 °C,,C/C=C/c1ccc(OC)cc1 [ANETHOL SUPRA 21.5 CELSIUS],
166 °C,,,,CCCCCC(=O)OCC [ETHYLCAPRONAT],
